Assay [1] has as its system HuP-T3 (Pancreatic Carcinoma). In words: Bliss excess, mean over the matrix (fraction); higher = more synergy. The procedure, abridged: (§1)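 Cell lines grown in DMEM/F12 or RPMI with 10% FBS were plated in 1536-well plates and held 24 hours at 37°C, 5% CO2 before 72 hours of exposure to two-drug dose matrices, with DMSO typically at 0.2%. CellTiter-Glo 2.0 luminescence gave viability, which was converted to inhibition. Vehicle wells were set to 0 and blank wells to 1. Combination Emax is the second-highest inhibition in the matrix, and Bliss excess is the observed combination effect minus the expected EA + EB − EA·EB, where EA and EB are the single-agent effects.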

The subject of assay [2] is OCUB-M (Breast Carcinoma). The assay is described as above. The procedure, abridged: as §1
Assay [3] relates to NCI-H2405 (Lung Adenocarcinoma). The description is as above. The procedure, abridged: as §1
For assay [4], the system named is KYSE-50 (Esophageal Squamous Cell Carcinoma). The assay is described as above. The procedure, abridged: as §1
In assay [5] the test system is DG-75 (Burkitt's Lymphoma). The assay is described as above. The procedure, abridged:
as §1

Assay [6] concerns EW-3 (Ewing's Sarcoma). The assay is described as above. In short, it runs like this: as §1
Assay [7] has as its system LOU-NH91 (Squamous Cell Lung Carcinoma). Described as above. In short, it runs like this: as §1
Assay [8] deals with RPMI-7951 (Melanoma). The assay is described as above. The procedure, abridged: as §1
The subject of assay [9] is KLE (Endometrial Carcinoma). Described as above. In short, it runs like this:
as §1

For assay [10], the system named is VMRC-LCD (Lung Adenocarcinoma). The description is as above. The procedure, abridged: as §1
Assay [11] concerns NCI-H1573 (Lung Adenocarcinoma). The description is as above. The procedure, abridged: as §1
Assay [12] has as its system KP-2 (Pancreatic Carcinoma). The assay is described as above. In short, it runs like this:
as §1

The test system of assay [13] is KINGS-1 (Low Grade Glioma). The description is as above. In short, it runs like this: as §1
Assay [14] concerns ASH-3 (Thyroid Gland Carcinoma). The assay is described as above. In short, it runs like this:
as §1

Assay [15] deals with IMR-5 (Neuroblastoma). The description is as above. In short, it runs like this: as §1
Assay [16] has as its system GOTO (Neuroblastoma). Described as above. The procedure, abridged:
as §1

Assay [17] concerns SCC-9 (Oral Cavity Carcinoma). The assay is described as above. In short, it runs like this:
as §1

Assay [18] relates to NCI-H322M (Lung Adenocarcinoma). Described as above. The procedure, abridged: as §1
The test system of assay [19] is EMC-BAC-2 (Non-Small Cell Lung Carcinoma). In words: combination Emax (second highest fraction inhibited in the dose matrix, 72 h); higher = more inhibition; extreme values may be limits of the assay. In short, it runs like this: as §1
Assay [20] deals with NCI-H322M (Lung Adenocarcinoma). Described as above. The procedure, abridged: as §1

The structures appear in SMILES notation.

Experimental findings from the supplement of paper PMC11061612 are described below.
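Wherever Bliss excess, mean over the matrix is given: after 72 h of two-drug dosing.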

Turning to `CCc1c2c(nc3ccc(O)cc13)-c1cc3c(c(=O)n1C2)COC(=O)[C@]3(O)CC` [SN-38] + O=C(c1cc(Cc2n[nH]c(=O)c3ccccc23)ccc1F)N1CCN(C(=O)C2CC2)CC1 [Olaparib] (first compound max 0.3 µM, 7x7, partner max 10 µM), the Bliss excess in [1] was -0.0406; in assay [2], 0.15; in assay [3], 0.0105; in assay [4], 0.0126; in assay [5] it was 0.0451; in [6], -0.0057. In addition, the Bliss excess in [7] is 0.0095; in assay [8] it was 0.0656; in assay [9] it was 0.0346; in assay [10] it was -0.0163; in [11], -0.0085; in [12], 0.0564. Moreover, the Bliss excess in assay [13] was 0.0161; in assay [14], 0.074; in assay [15], 0.0721; in assay [16] it was -0.0014; in assay [17], 0.0207; in [18] it was 0.0495. Besides, the “combination Emax” value was determined as 0.531 in assay [19] and 0.869 in [20].
